According to US20100297229A1, “TAPENTADOL COMPOSITIONS” (Nectid Inc., priority 2007, published 2010):
Where a name gives a salt, the structure may show the parent alone.

How the values were obtained:
[1] = system: Chronic non-cancer pain (CNCP); assay: Study III: clinical trial of tapentadol and tramadol combination, VAS pain score; assay type: in vivo, human; details: mean ± SD, VAS 0-100 mm, N = 10
Method: The following general methods were used in all of the studies;
Randomization: Randomization was performed with computer-generated random numbers in blocks of 10. Randomization codes of the monotherapy or combination therapy treatments were placed in sequentially numbered, opaque, sealed envelopes in the biopsy center. When a patient was recruited and consented, the next numbered envelope was opened by the operator, who had no knowledge of the randomization code before the treatment
Scale and Measurement: Pain was assessed using a visual analogue scale (VAS) graded from 0-100 mm. Pain scoring was performed every visit Week 1, Week 2, Week 3, Week 4, Week 5 and Week 6. The patients were taught with a standard method by the physician how to use a VAS scoring from 0 to 100 mm to grade the intensity of pain experienced during the treatment. On that scale, the left endpoint, 0, was defined as no pain and the right endpoint 100, as the worst pain the patient could imagine. There were no further marks on the line. The intensity of pain was indicated by the distance in millimeters from the left end. Patients were asked to grade the pain intensity after the administration of drugs and the pain was assessed by the patient in their weekly pain score diary. The doctors who prescribed the medicines obtained all the VAS forms for that specific patient.
Statistical Analysis: Data are expressed as means±SD. Differences in VAS were analyzed with use of the unpaired Student t test and differences in pain score reductions between the two groups were analyzed with use of the Mann-Whitney U test for the median difference. Similar statistical tests were used for between group comparisons of other outcome variables as appropriate. A two tailed P value of less than. […] SAS software was used for the statistical analysis.
The Fixed dose combination of slow release tapentadol hydrochloride and tramadol hydrochloride was tested in a human clinical trial. In this study III, 40 patients were used in a clinical trial were suffering from Chronic non-cancer pain (CNCP), defined as pain for longer than 6 months, including neuropathic pain, osteoarthritis, rheumatoid arthritis, fibromyalgia, and back and musculoskeletal pain were included in the clinical trial. No effort was made to segregate the patients based on the type of pain nor did we evaluate the extent of pain relief on the basis of pain type. Those patients with migraines, dental pain, abdominal pains (from chronic pancreatitis, kidney stones, etc.) and ischemic pain from vascular disease were excluded because they are usually not classified as CNCP. Patients with history of addiction (alcohol or drugs) were excluded from the trials.

[2] = system: pain intensity associated with knee osteoarthritis; assay: Study I: 6-week clinical trial of tapentadol and NSAID combination, Arthritis Pain Intensity VAS; assay type: in vivo, human; details: primary endpoint; average of Weeks 1-6; knee osteoarthritis patients; FIG. 2

Structure (SMILES) | VAS Pain Score ([1]; time 0 hours) | VAS Pain Score ([1]; time 3 hours) | VAS Pain Score ([1]; time 6 hours) | VAS Pain Score ([1]; time 9 hours) | VAS Pain Score ([1]; time 12 hours) | VAS Pain Score ([1]; time 15 hours) | VAS Pain Score ([1]; time 18 hours) | VAS Pain Score ([1]; time 21 hours) | VAS Pain Score ([1]; time 24 hours) | LS Mean change from baseline over 6 weeks in the arthritis pain intensity VAS [2] [%]
CC[C@@H](c1cccc(O)c1)[C@@H](C)CN(C)C [Tapentadol, 3-(3-Dimethylamino-1-ethyl-2-methyl-propyl)-phenol] | 33.7 ± 18.2 | 24.8 ± 19.1 | 21.1 ± 22.9 | 14.2 ± 23.1 | 11.2 ± 20.9 | 11.0 ± 16.2 | 9.5 ± 17.8 | 10.4 ± 16.2 | 11.6 ± 16.2 | 38
COc1ccc2cc([C@H](C)C(=O)O)ccc2c1 [Naproxen, (+)-(S)-2-(6-methoxy-naphthalen-2-yl) propanoic acid] | – | – | – | – | – | – | – | – | – | 28
COc1cccc([C@]2(O)CCCC[C@H]2CN(C)C)c1 (racemic) [Tramadol, (±) cis-2-[(dimethylamino)methyl]-1-(3-methoxyphenyl)cyclo-hexanol hydrochloride] | 32.4 ± 21.2 | 23.1 ± 20.1 | 18.8 ± 20.6 | 14.9 ± 17.2 | 13.1 ± 21.2 | 13.9 ± 19.2 | 15.4 ± 21.3 | 14.5 ± 19.2 | 13.9 ± 19.2 | –
